Here are results for seven compounds from patent US5912258A, “Thiadiazoleamide derivative and anti-ulcer drug” (Shiseido Co., Ltd., priority 1998, dated 1999).

One series concerns gastric mucosa. Put plainly: PD: Gastric Mucosal Integrity Test (gastric mucosal potential difference). The conditions noted are these: rat, 100 mg/kg into the chamber, 60 minutes. Format: in vivo, Male Crj:SD rats. More on the design: key: 5: Same as the control with no recognizable damage at all.; 4: Though a slight PD-decreasing tendency suggesting a slight possibility of mucosal damage is found, there is no problem.; 3: Though a weak decrease in PD and a possibility of a weak mucosal damage is recognized, there is no substantial problem.; 2: Medium degree of decrease in PD is found and a mucosal damage is recognized.; 1: Heavy degree of decrease in PD is found and a remarkable mucosal damage is recognized. The protocol:
PD: Gastric Mucosal Integrity Test
In this case, since the sample compound has a necrotizing effect, it is inappropriate as an anti-ulcer medicament.
Therefore, the gastric mucosal potential difference (PD), which reflects the integrity of the gastric mucosa, is measured so as to confirm that the sample compound has no damaging effect on gastric mucosa, which is toxicity at gastric mucosal level.
Male Crj:SD rats (7 to 8-week-old) were fasted overnight, but allowed free access to water, and then, under urethane anesthesia (1.25 g/kg, i.p.), fixed to a cork board on its back. The abdomen of each rat was incised, and a small incision was made in the forestomach. Then, the inside of the stomach was washed with physiological saline heated at 37° C. From the forestomach, along the greater curvature thereof, the stomach was incised without damaging blood vessels. After the height of the cork board was adjusted on a jack, the stomach was mounted on ex vivo chamber. The area of the gastric mucosa exposed to the inside of this chamber was 2.5 cm^2. The inside of the chamber was perfused with physiological saline warmed at 37° C. by micro tube pump. By using an agar bridge containing 3M KCl, the potential difference between the chamber and the abdominal cavity was measured by a PD meter. Here, the rectal temperature was measured to control the body temperature during the experiment. After the PD was sufficiently stabilized, the perfusate was stopped and then 100 mg/10 ml/kg of the sample compound dissolved or suspended in an aqueous solution of 0.5% sodium carboxymethylcellulose or 0.05% Tween 80 was administered into the chamber, while PD was recorded for 60 minutes. To a control, the vehicle was administered.
The change in PD during 60 minutes after the administration of 100 mg/kg of the sample compound was collectively studied and, with reference to the positive control, classified into 5 levels as follows:
5: Same as the control with no recognizable damage at all.
3: Though a weak decrease in PD and a possibility of a weak mucosal damage is recognized, there is no substantial problem.
2: Medium degree of decrease in PD is found and a mucosal damage is recognized.
1: Heavy degree of decrease in PD is found and a remarkable mucosal damage is recognized.

In series [1] the test system is isolated gastric fundic gland. Put plainly: CAP: Acid Secretion Inhibition Test in vitro ([^14 C]-aminopyrine uptake). The class given is cell-based, male Japanese White rabbit. As to conditions: Oryctolagus cuniculus, rabbit isolated gastric fundic gland, 10^-5 M, histamine 10^-5 M; read-out: CAP: Acid secretion inhibitory rate. The protocol: CAP: Acid Secretion Inhibition Test in vitro (i) Meaning The acid secretion inhibitory activity in a cell level is studied. It can also be used for studying the mechanism of the effect. (ii) Method (ii)-(a) Preparation of isolated gastric gland suspension First, an isolated gastric fundic gland sample was prepared. Namely, a male Japanese White rabbit (2.5 to 3 kg) was anesthetized to death with Nembutal™ and then the abdomen was incised. Immediately thereafter, the stomach was removed and, after its pyloric and cardiac antrum were severed, incised along its greater curvature into two sheets. The gastric contents adhering to the mucosal surface was washed out with ice-cooled PBS (-) and then carefully washed therein. The gastric wall was spread on a cork board with its mucosal surface facing up and the feed and mucus thereon were completely removed with sterile gauze. The mucosa was separated therefrom by a spatula and then collected in ice-cooled PBS (-). After being washed twice with PBS (-), the mucosa was minced into 2-3 mm^3 pieces by scissors. These pieces were further washed twice with a nutrient solution. The nutrient solution comprises 132.4 mM of NaCl, 5.4 mM of KCl, 5 mM of Na2 HPO4 ·12H2 O, 1 mM of NaH2 PO4 ·2H2 O, 1.2 mM of MgSO4, 1 mM of CaCl2, 25 mM of HEPES, 2 mg/ml of glucose, and 1 mg/ml of BSA. Into 70 ml of the nutrient solution containing 1 mg/ml of collagenase, minced mucosal pieces were dispersed and intensely stirred in a conical flask with a stirrer at 37° C. for 40 to 60 minutes. […] The nutrient solution was added to the reaction solution so as to attain the total amount of about 200 ml. After being filtered through a mesh, the suspension was divisionally introduced into 50 ml centrifuge tubes and left for 15 minutes such that gastric fundic gland was deposited. The supernatant was repeatedly removed by an aspirator, dispersed in the nutrient solution, and then left such that the gastric fundic gland was washed three times. At this time, without using a pipette, the suspension was alternately introduced into two centrifuge tubes so as to effect dispersion. The number of cells was counted under microscope and adjusted to 1.6×10^6 cells/ml. (ii)-(b) [^14 C]-aminopyrine uptake test Then [^14 C]-aminopyrine uptake test was performed. After an Eppendorf tube was weighed, 10 μl (final concentration: 10^-5 M) of histamine dissolved in the above-mentioned nutrient solution, 10 μl (final concentration: 10 ^-5 M) of the test compound dissolved in DMSO, and 10 μl (final concentration: 0.05 μCi/ml) of [^14 C]-aminopyrine diluted with the nutrient solution were introduced therein and then 970 μl of the isolated gastric fundic gland suspension prepared above were added thereto. Subsequently, this mixture was shaken at 37° C. for 40 minutes at 125 cycles/minute. After being centrifuged for 30 minutes 200 μl of its supernatant was collected into a mini-vial, while the rest was removed by an aspirator. The gland pellet was completely dried as the tube with its lid being opened was kept for one night in a drying oven at 80° C. and then the weight was determined at room temperature. Then 100 μl of 1N KOH was added thereto an the tube with its lid being closed was treated at 60° C. for 1 to 2 hours so as to dissolve the pellet. Then, the contents thereof were transferred to a mini-vial. Into the mini-vial containing the supernatant or gland pellet, 4 ml of Atomlite™ was added and then the radioactivity was measured by a liquid scintillation counter. Here, after the radioactivity of the gland pellet was corrected by using a sample in which 20 mM of NaSCN was added so as to cancel the hydrogen ion concentration gradient, the integration ratio of aminopyrine specifically trapped by the gland pellet was calculated. This experiment was performed in duplicate. (ii)-(c) Calculation of the accumulation rate of aminopyrine Here, its principle will be briefly explained. […]

Take `CCN(CC)CCSc1nnc(NC(=O)c2ccc(C(C)C)cc2)s1` [Example 1, 2-(4-isopropylbenzoyl)amino-5-diethylaminoethylthio-1,3,4-thiadiazole]: in the series on gastric mucosa, the “PD: change in gastric mucosal potential difference (5 levels)” value amounted to 3. For the same compound, the inhibition at 10 µM in series [1] came to 101%.
Turning to `CC(C)c1ccc(C(=O)Nc2nnc(SCCN(C(C)C)C(C)C)s2)cc1` [Example 2, 2-(4-isopropylbenzoyl)amino-5-diisopropylaminoethylthio-1,3,4-thiadiazole], in the series with gastric mucosa, the “PD: change in gastric mucosal potential difference (5 levels)” value is 5. The inhibition at 10 µM in series [1] was determined as 100%.
The matching figures for `CCN(CC)CCSc1nnc(NC(=O)c2ccc(C(C)(C)C)cc2)s1` [Example 4, 2-(4-tert-butylbenzoyl)amino-5-diethylaminoethylthio-1,3,4-thiadiazole]: 3 and 100%.
Turning to `CCN(CC)CCSc1nnc(NC(=O)c2ccc(OC/C=C(\C)CCC=C(C)C)cc2)s1` [Example 10, 2-(4-geranyloxybenzoyl)amino-5-diethylaminoethylthio-1,3,4-thiadiazole], the “PD: change in gastric mucosal potential difference (5 levels)” value in the series on gastric mucosa is given as 5. For the same compound, in series [1], the inhibition at 10 µM is 100%.
Regarding `CC(C)=CCC/C(C)=C/COc1ccc(C(=O)Nc2nnc(SCCN3CCCCC3)s2)cc1` [Example 12, 2-(4-geranyloxybenzoyl)amino-5-piperidinoethylthio-1,3,4-thiadiazole], the “PD: change in gastric mucosal potential difference (5 levels)” value in the series on gastric mucosa came to 5. Also, in series [1], the inhibition at 10 µM was 99%.
The matching figures for `CC(C)=CCC/C(C)=C/COc1ccc(C(=O)Nc2nnc(SCc3ccccn3)s2)cc1` [Example 14, 2-(4-geranyloxybenzoyl)amino-5-(2-pyridylmethyl)thio-1,3,4-thiadiazole]: 5 and 45%.
As to `CCSc1nnc(NC(=O)c2ccc(OC/C=C(\C)CCC=C(C)C)cc2)s1` [Example 15, 2-(4-geranyloxybenzoyl)amino-5-ethylthio-1,3,4-thiadiazole], the “PD: change in gastric mucosal potential difference (5 levels)” value in the series with gastric mucosa is on record as 5. The inhibition at 10 µM in series [1] came to 17%.
